Target: T1, human CCR4 (Homo sapiens, UniProt P51679)
T1 construct: expressed in transfected cells; host or cells: CHO-dhfr(-)
T1 sequence (P51679 1-360): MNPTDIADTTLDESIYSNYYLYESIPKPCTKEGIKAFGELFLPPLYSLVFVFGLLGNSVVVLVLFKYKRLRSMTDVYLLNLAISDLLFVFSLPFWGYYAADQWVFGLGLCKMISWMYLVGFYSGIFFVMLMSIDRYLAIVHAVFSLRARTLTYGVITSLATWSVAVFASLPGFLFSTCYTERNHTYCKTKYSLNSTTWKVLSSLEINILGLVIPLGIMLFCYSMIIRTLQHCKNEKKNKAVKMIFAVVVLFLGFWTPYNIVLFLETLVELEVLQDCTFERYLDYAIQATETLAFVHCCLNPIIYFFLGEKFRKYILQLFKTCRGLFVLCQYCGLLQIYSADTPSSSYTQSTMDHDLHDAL
Test: Inhibition test on activity of MDC mediated by CCR4 (MDC-induced transient increase of Ca ions) in CCR4/CHO cells
Assay type: cell-based
Conditions: in the presence of 0.3% BSA; human MDC 10 nM; CCR4/CHO cell; read-out: IC50 value (inhibition of Ca2+ transient increase by MDC)
Experimental: Human bone marrow cell cDNA was prepared using Marathon cDNA amplification kit (manufactured by Clontech). PCR primers hCCR4XbaI-F1 (SEQ ID NO:1) and hCCR4XbaI-R1 (SEQ ID NO:2) were designed based on the sequence of GenBankX85740.
Using the human bone marrow cell cDNA as the template and using Ex Taq (manufactured by Takara), a PCR reaction (2 minutes at 95° C.→[30 seconds at 95° C., 45 seconds at 60° C., 1 minute at 72° C.]×35 times) was carried out. The thus amplified PCR product was subjected to 1% agarose gel electrophoresis, purified using QIAquick Gel Extraction Kit (manufactured by QUIAGEN) and then digested with a restriction enzyme XbaI. […]
The thus established human CCR4 stably overexpressing CHO cell (CCR4/CHO cell) was suspended in Ham's F-12 medium and FBS (10%) and dispensed into a 96-well plate at 3.0×10^4 cells/well. […] Transient increase in the intracellular Ca^2+ concentration induced by the human MDC was measured using a Ca^2+ detector for 96-well (manufactured by Hamamatsu Photonics), and inhibition ratio (%) of the test compound was calculated by the following equation: Inhibition ratio=[(Ec−Ea)/Ec]×100 • Ec: measured value of Ca^2+ transient increase by MDC; and • Ea: measured value of Ca^2+ transient increase by MDC when a test compound was added […]

SMILES | IC50
COc1ccc(COc2cc(Br)cnc2NS(=O)(=O)c2ccc(C)cc2)cc1OCCN(C)C [Example 2(2), N-[5-bromo-3-({3-[2-(dimethylamino)ethoxy]-4-methoxybenzyl}oxy)pyridin-2-yl]-4-methylbenzenesulfonamide] | 0.23 µM
Cc1cnc(NS(=O)(=O)c2ccccc2Cl)c(OCc2ccc(Cl)c(OCC3CCN(C)CC3)c2)n1 [Example 6(1)] | 0.08 µM
